Measurements from US20230094404A1, “METHOD FOR PREPARATION OF HETEROCYCLICAMINE DERIVATIVES” (Daewoong Pharmaceutical Co., Ltd., priority 2020, published 2023).

Assays:
[1] = biological target: T1, BTK (Homo sapiens, UniProt Q06187); experiment: ADP-Glo BTK Kinase enzyme system inhibitory activity; format: biochemical; conditions: ADP-Glo kit (Promega), ATP 10 uM, duplicate; read-out: inhibitory activity against BTK (BTK IC50)
T1 construct: purchased Promega Corporation
Procedure: (§1) Inhibitory activities against BTK and ITK were measured for the compound represented by Chemical Formula 1 prepared in the above Examples as follows.
The inhibitory activities against BTK were evaluated using ‘ADP-GIo™+BTK Kinase enzyme system’ kit (Promega Corporation). In a white 96-well plate, 10 ? of BTK enzyme prepared so as to have a final concentration of 10 ng/ ? was mixed with 5 ? of compounds having a final concentration of 1 uM in the case of evaluating a single concentration of compound and a concentration of 1000, 200, 40, 8, 1.6 and 0.32 nM in the case of IC50 evaluation, and then reacted at room temperature for 15 minutes. 5 ? of substrate and 5 ? of ATP prepared so as to have a final concentration of 10 uM were added to the plate on which reactions were completed, and then allowed to react at 30° C. for 1 hour. All wells of the plate on which reactions were completed were treated with 25 ? of ADP-Glo™ reagent and allowed to react at 30° C. for 40 minutes. […] For the plate on which all reactions were completed, luminescence was measured and the results were calculated. Evaluation was carried out in duplicate, and negative control and positive control were calculated depending on whether or not the enzyme was added without treatment of the compound. The IC50 was calculated based on the calculated values.

[2] = biological target: T2, ITK (Homo sapiens, UniProt Q08881); experiment: ADP-Glo ITK Kinase enzyme system inhibitory activity; format: biochemical; conditions: ADP-Glo kit (Promega), ATP 25 uM, duplicate; read-out: inhibitory activity against ITK (ITK IC50)
T2 construct: purchased Promega Corporation
T2 sequence (Q08881 1-620): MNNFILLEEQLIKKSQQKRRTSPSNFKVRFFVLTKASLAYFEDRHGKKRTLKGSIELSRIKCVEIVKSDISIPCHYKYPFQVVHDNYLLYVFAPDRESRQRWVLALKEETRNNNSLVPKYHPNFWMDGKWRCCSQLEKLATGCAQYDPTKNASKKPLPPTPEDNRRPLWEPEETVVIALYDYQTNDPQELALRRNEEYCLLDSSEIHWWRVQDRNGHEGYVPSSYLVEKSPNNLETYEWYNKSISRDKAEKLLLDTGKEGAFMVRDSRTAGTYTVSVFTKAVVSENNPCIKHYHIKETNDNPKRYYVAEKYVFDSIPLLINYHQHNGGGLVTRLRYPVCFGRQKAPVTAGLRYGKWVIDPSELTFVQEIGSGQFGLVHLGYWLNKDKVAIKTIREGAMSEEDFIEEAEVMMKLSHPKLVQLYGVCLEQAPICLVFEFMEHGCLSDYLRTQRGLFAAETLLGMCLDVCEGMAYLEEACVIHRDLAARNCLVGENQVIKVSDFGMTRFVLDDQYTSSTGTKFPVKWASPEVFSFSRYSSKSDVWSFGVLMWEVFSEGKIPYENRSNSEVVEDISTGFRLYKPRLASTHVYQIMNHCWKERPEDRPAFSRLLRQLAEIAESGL
Procedure: as §1
In addition, the inhibitory activity against ITK was evaluated using ‘ADP-GIo™+ITK Kinase enzyme system’ kit (Promega Corporation). In a white 96-well plate, 10 ? of ITK enzyme prepared so as to have a final concentration of 4 ng/ ? was mixed with 5 ? of compounds having a final concentration of 1 uM in the case of evaluating a single concentration of compound and a concentration of 1000, 200, 40, 8, 1.6 and 0.32 nM in the case of IC50 evaluation, and then reacted at room temperature for 15 minutes. To the plate on which reactions were completed, 5 ul of substrate and 5 ? of ATP prepared so as to have a final concentration of 25 uM were added and then allowed to react at 30° C. for 1 hour. All wells of the plate on which reactions were completed were treated with 25 ? of ADP-Glo™ reagent and then allowed to react at 30° C. for 40 minutes. […] For the plate on which all reactions were completed, luminescence was measured and the results were calculated. Evaluation was carried out in duplicate, and negative control and positive control were calculated depending on whether or not the enzyme was added without treatment of the compound. The IC50 was calculated based on the calculated values.

T1 sequence (Q06187 whole entry): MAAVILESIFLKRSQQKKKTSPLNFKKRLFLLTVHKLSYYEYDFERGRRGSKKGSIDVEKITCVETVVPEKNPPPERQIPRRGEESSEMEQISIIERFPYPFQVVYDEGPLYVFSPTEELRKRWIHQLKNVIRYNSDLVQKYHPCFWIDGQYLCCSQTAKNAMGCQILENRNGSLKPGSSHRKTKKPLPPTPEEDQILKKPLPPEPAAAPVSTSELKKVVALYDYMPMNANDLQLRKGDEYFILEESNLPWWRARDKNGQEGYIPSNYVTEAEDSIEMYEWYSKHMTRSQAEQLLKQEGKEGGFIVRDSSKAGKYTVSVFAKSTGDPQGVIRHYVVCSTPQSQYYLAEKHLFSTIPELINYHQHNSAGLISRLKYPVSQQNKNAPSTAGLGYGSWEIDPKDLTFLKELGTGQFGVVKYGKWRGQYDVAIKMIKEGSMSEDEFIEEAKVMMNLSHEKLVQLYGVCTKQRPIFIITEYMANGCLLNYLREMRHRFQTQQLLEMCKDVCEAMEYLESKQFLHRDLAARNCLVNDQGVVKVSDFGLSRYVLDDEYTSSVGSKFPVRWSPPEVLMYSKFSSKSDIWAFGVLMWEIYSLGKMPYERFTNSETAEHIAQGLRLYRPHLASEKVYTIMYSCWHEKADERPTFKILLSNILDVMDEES

IC50 [1]: 0.4 to 1.4 nM
IC50 [2]: 1 to 1.7 nM
Structure (SMILES): C=CC(=O)N1CCC[C@H](Nc2cc(CN3CCOCC3)cc(Nc3ncc(C)s3)n2)C1 [Chemical Formula 1, (S)-1-(3-((6-((5-methylthiazol-2-yl)amino)-4-(morpholinomethyl)pyridin-2-yl)amino)piperidin-1-yl)prop-2-en-1-one]
